Columns and labels:
TDG [1] = target: T1, TDG (Homo sapiens, UniProt Q13569); assay: TDG inhibitory activity of compounds in cells (caC-cmv-firefly luciferase reporter, HEK 293T TDG KO cells transfected with pCDNA4-TDG); format: cell-based; conditions: read-out: Inhibition rate on TDG activity
In short: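 TDG-knockout HEK 293T cells co-transfected with an in vitro Tet1-oxidised, 5caC-modified CMV-firefly reporter, a Renilla control and a TDG (or empty myc) plasmid, then treated with compounds for 72 h at 37°C. Firefly/Renilla ratio gives relative TDG activity inhibition, with activity bins set at 10 μM.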

TDG [2] = target: T1, TDG; assay: Inhibition of TDG mismatch repair activity (fluorescent G·U double-stranded DNA probe T1-T2); format: biochemical; conditions: TDG 100 nM/L, preincubated with compound 37° C. 30 minutes; probe 30 nM; read-out: Inhibitory activity on TDG mismatch repair IC50
In short: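 TDG (100 nM/L) preincubated with compound 30 min at 37 °C in 20 mM HEPES pH7.5, 100 mM NaCl, 0.2 mM EDTA, 2.5 mM MgCl2, then 30 nM FAM/biotin G·U probe for 30 min at 25 °C. After streptavidin bead capture and 200 mM NaOH, supernatant fluorescence read at 485/520 nm; IC50 determined.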

[3] = tested on: Lung cancer cell line Calu-1; assay: Inhibition of the growth of Calu-1 cells (CellTiter-Glo, 72 hours); format: cell-based; conditions: Homo sapiens, 72 hours of culturing, read-out: Inhibitory activity on alu-1 cell growth IC50
In short: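 Calu-1 cells in McCoy's 5A with 10% FBS, seeded at 500 cells/well and dosed the next day at 0.1% DMSO final. Viability was read by CellTiter-Glo 2.0 luminescence after 72 h at 37° C. Activity class: ++ for IC50 ≤5 μM, + for IC50 >5 μM.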

T1 sequence (Q13569 whole entry): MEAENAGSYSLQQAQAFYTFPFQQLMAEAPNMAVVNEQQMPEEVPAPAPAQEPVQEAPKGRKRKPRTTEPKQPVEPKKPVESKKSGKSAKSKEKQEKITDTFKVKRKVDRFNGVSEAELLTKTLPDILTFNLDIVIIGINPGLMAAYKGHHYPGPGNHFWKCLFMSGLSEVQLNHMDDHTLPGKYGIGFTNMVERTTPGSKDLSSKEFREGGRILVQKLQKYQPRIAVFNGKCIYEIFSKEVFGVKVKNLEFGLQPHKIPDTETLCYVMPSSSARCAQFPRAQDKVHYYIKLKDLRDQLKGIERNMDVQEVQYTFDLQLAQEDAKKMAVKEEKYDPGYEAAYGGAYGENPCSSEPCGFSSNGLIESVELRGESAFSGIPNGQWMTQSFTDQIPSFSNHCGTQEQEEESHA

| SMILES | inhibition at 10 µM (TDG [1]) | IC50 (TDG [2]) | IC50 [3] |
| --- | --- | --- | --- |
| C=CC(=O)c1ccc2c(c1)OCCO2 [Compound 42, 1-(2,3-dihydrobenzo[b][1,4]dioxin-6-yl)prop-2-en-1-one] | < 25% | ≤ 5 µM | ≤ 5 µM |
| N#Cc1ccc(C2CCN(CCC(=O)c3ccc4c(c3)OCCO4)C2)cc1 (stereo not drawn) [Compound 50, 4-(1-(3-(2,3-dihydrobenzo[b][1,4]dioxin-6-yl)-3-oxopropyl)pyrrolidin-3-yl)benzonitrile] | > 25% | ≤ 5 µM | ≤ 5 µM |
| N#Cc1ccc2c(c1)CN(CCC(=O)c1ccc3c(c1)OCCO3)C2 [Compound 8] | < 25% | ≤ 5 µM | > 5 µM |
| O=C(CCn1ccc(-c2ccc(F)cc2)cc1=O)c1ccc2c(c1)OCCO2 [Compound 18, 1-(3-(2,3-dihydrobenzo[b][1,4]dioxin-6-yl)-3-oxopropyl)-4-(4-fluorophenyl)pyridine-2(1H)-one] | > 25% | ≤ 5 µM | > 5 µM |
